The record followed here is ChEMBL document CHEMBL4706534, “1,2,3-Triazole-containing hybrids with potential antibacterial activity against methicillin-resistant Staphylococcus aureus (MRSA)” (Eur J Med Chem, 2020).

Assay [1] concerns Staphylococcus aureus. Put plainly: Antibiofilm activity against methicillin-resistant Staphylococcus aureus ATCC BAA-44 incubated for 24 hrs by crystal violet-staining based assay. It is filed as functional, organism-based. The settings on record: ATCC BAA-44, 24 h.
Assay [2] relates to Staphylococcus aureus. The assay can be described thus: Antibiofilm activity against methicillin-resistant Staphylococcus aureus ATCC BAA-44 assessed as disruption of preformed biofilms incubated for 24 hrs by CV-staining based assay. It is filed as functional, organism-based. The settings on record: ATCC BAA-44, 24 h.
Assay [3] has as its system Staphylococcus aureus. The assay can be described thus: Potentiation of oxacillin-induced antibacterial activity against methicillin-resistant Staphylococcus aureus ATCC BAA-44 assessed as reduction in oxacillin MIC preincubated for 30 mins followed by oxacillin addition and measured after 16 hrs by broth microdilution method. The format is functional. The settings on record: time 16.5 hrs.

Assay [4] has as its system Staphylococcus aureus. The assay can be described thus: Antibacterial activity against methicillin-resistant Staphylococcus aureus ATCC 43300 incubated for 16 to 18 hrs by CLSI based assay. The format is functional. The settings on record: time 16-18 hrs.
Assay [5] concerns Staphylococcus aureus. The assay can be described thus: Antibacterial activity against Staphylococcus aureus DSM 20231 incubated for 16 to 18 hrs by CLSI based assay. It is filed as functional. The settings on record: time 16-18 hrs.
Assay [6] concerns Staphylococcus aureus. The assay can be described thus: Resistance index, ratio of MIC for antibacterial activity against Staphylococcus aureus ATCC 43300 incubated for 16 to 18 hrs by CLSI based assay to MIC for antibacterial activity against Staphylococcus aureus DSM 20231 incubated for 16 to 18 hrs by CLSI based assay. The settings on record: time 16-18 hrs. It is filed as functional.

The subject of assay [7] is Staphylococcus aureus. Put plainly: Antibacterial activity against Staphylococcus aureus NRS119 incubated for 18 hrs by CLSI-based two fold agar dilution method. The format is functional. On the technique in general: In agar dilution, organisms are placed on agar that contains the substance at set levels.
Assay [8] deals with Staphylococcus aureus. Put plainly: Antibacterial activity against Staphylococcus aureus NRS121 incubated for 18 hrs by CLSI-based two fold agar dilution method. It is filed as functional.
The test system of assay [9] is Staphylococcus aureus. The assay can be described thus: Antibacterial activity against Staphylococcus aureus NRS127 incubated for 18 hrs by CLSI-based two fold agar dilution method. The format is functional.
Assay [10] has as its system Staphylococcus aureus. The assay can be described thus: Antibacterial activity against Staphylococcus aureus NRS271 incubated for 18 hrs by CLSI-based two fold agar dilution method. The format is functional.
Assay [11] concerns Staphylococcus aureus. Put plainly: microbe, parasite or virus in culture. The settings on record: 725.
Assay [12] concerns Staphylococcus aureus. The assay can be described thus: microbe, parasite or virus in culture. The settings on record: 936.
Assay [13] has as its system Staphylococcus aureus. The assay can be described thus: Antibacterial activity against methicillin-resistant Staphylococcus aureus ATCC 33591 measured after 18 hrs by CLSI-based broth microdilution method. It is filed as functional.
In assay [14] the test system is Staphylococcus aureus. The assay can be described thus: Antibacterial activity against methicillin-resistant Staphylococcus aureus. The format is functional.
Assay [15] relates to Staphylococcus epidermidis. Put plainly: Antibacterial activity against methicillin-resistant Staphylococcus epidermidis. The format is functional.

The structures appear in SMILES notation. Converted amounts (≈) assume the structure as drawn.

In the assay with Staphylococcus aureus [1], `CCCCCCc1ccc(C(=O)NCCn2cc(CCCCCc3c[nH]c(N)n3)nn2)cc1` yielded a concentration for half-maximal inhibition (IC50) of 700 nM. In addition, the concentration for a half-maximal effect (EC50) in the assay on Staphylococcus aureus [2] is 900 nM. Moreover, the “fold change (FC)” value with Staphylococcus aureus [3] is 64.
Regarding `N=C(N)NCCC[C@H](NC(=O)[C@H](Cc1c[nH]c2ccccc12)NC(=O)[C@@H](N)CCCNC(=N)N)C(=O)N[C@@H](Cc1c[nH]c2ccccc12)C(=O)N[C@@H](CCCCn1cc(COc2cc(OCc3cn(CCCC[C@H](NC(=O)[C@H](Cc4c[nH]c5ccccc45)NC(=O)[C@H](CCCNC(=N)N)NC(=O)[C@H](Cc4c[nH]c5ccccc45)NC(=O)[C@@H](N)CCCNC(=N)N)C(N)=O)nn3)cc(OCc3cn(CCCC[C@H](NC(=O)[C@H](Cc4c[nH]c5ccccc45)NC(=O)[C@H](CCCNC(=N)N)NC(=O)[C@H](Cc4c[nH]c5ccccc45)NC(=O)[C@@H](N)CCCNC(=N)N)C(N)=O)nn3)c2)nn1)C(N)=O`, the values for the MIC against Staphylococcus aureus [4] and with Staphylococcus aureus [5] were 2.7 µM (≈ 7.58 µg/mL) and 5.4 µM (≈ 15.2 µg/mL), respectively. Besides, the Ratio in the assay with Staphylococcus aureus [6] amounted to 0.5.
On to `CC(=O)NC[C@H]1CN(c2ccc(N3C[C@H]4CC(n5ccnn5)C[C@H]4C3)c(F)c2)C(=O)O1` (stereo not given in full), for which the MIC in the assay on Staphylococcus aureus [7], with Staphylococcus aureus [8], with Staphylococcus aureus [9] and in the assay on Staphylococcus aureus [10] was 16 µg/mL (≈ 37.3 µM) throughout.
Turning to `Cc1nnc(SCC2=C(C(=O)O)N3C(=O)[C@@H](NC(=O)Cn4cnnn4)[C@H]3SC2)s1` [CEFAZOLIN SODIUM], the figures for the MIC against Staphylococcus aureus [11] and with Staphylococcus aureus [12] were 32 µM and 8 µM, respectively.
The compound `CC(=O)NC[C@H]1CN(c2ccc(N3CCN(C(=O)c4cn(C[C@H]5O[C@@H](n6cc(C)c(=O)[nH]c6=O)[C@H](O)[C@@H]5O)nn4)CC3)c(F)c2)C(=O)O1` had an MIC against Staphylococcus aureus [13] of 64 µg/mL (≈ 95.3 µM).
As for `CC[C@@H](C(=O)[C@@H](C)[C@@H](O)[C@H](C)[C@@H]1O[C@@H]([C@@H](CC)C(=O)NCc2cn([C@H]3C[C@H](n4cc(F)c(=O)[nH]c4=O)O[C@@H]3CO)nn2)CC[C@@H]1C)[C@H]1O[C@]2(C=C[C@@H](O)[C@]3(CC[C@@](C)([C@H]4CC[C@](O)(CC)[C@H](C)O4)O3)O2)[C@H](C)C[C@@H]1C`, the MIC (against Staphylococcus aureus [14]; in [15]) was 32 µg/mL (≈ 30.2 µM) in each case.

The IC50 is the concentration that gives 50% inhibition. A high value points to weaker potency in that assay. Broadly, the EC50 is the concentration that produces a half-maximal response.
